{"source": "patent US8871815B2", "about": "“Therapeutic compounds” (Signature Therapeutics, Inc., priority 2007, dated 2014)", "key": {"ferrets": {"tested_on": "ferrets", "test": "Pro-emetic activity in ferrets", "type": "in vivo, ferret", "conditions": "15 min IV infusion at 1 mg/kg/min, administered alone, 6 ferrets, 45 min", "from_the_text": "Immediately prior to dosing, food and water were removed."}, "pigs": {"tested_on": "pigs", "test": "in vivo", "conditions": "384 μg per kg per min, pigs", "method": "Experiments were performed on commercial farm-bred swine of either sex (mean weight 33.6 kg). Anesthesia was induced with isoflurane. Intravascular access was obtained from an ear vein. Each pig was intubated and mechanically ventilated. Tissue oxygenation was monitored using continuous pulse oximetry placed on the tongue. Ventilation was monitored using an inspired/expired gas analyzer that measured oxygen, carbon dioxide, and potent inhalation agent concentrations. Ventilator settings were adjusted as needed to maintain steady state.\nECG was monitored throughout the study. Arterial blood pressure was monitored through the cannulated left femoral artery. MAP, systolic and diastolic arterial pressures and heart rate were collected every 5 seconds. An internal jugular vein was cannulated with a pulmonary artery catheter for thermodilution estimates of cardiac output and blood temperature. Body temperature was maintained at 37° C. Instrumentation for EEG monitoring was accomplished using an adhesive electrode array over the fronto-occipital regions (Aspect Medical. Norwood, Mass., USA).\nMetabolic and hemodynamic parameters for each group were compared at multiple time points using an unpaired two-tailed Student t test. To account for multiple comparisons and maintain the probability of a type I error below 0.05, P values less than 0.025 were considered significant."}, "[1]": {"test": "Pharmacokinetic study in domestic pigs, IV infusion", "type": "in vivo, pig"}, "Beagle dogs": {"tested_on": "Beagle dogs", "conditions": "dogs"}, "male Sprague-Dawley rats": {"tested_on": "male Sprague-Dawley rats", "test": "Anesthetic effects in rats, bolus IV, Loss of Righting Reflex (LORR)", "type": "in vivo, rat", "conditions": "rats", "method": "Also measured was minimum dose to achieve LORR and maximum tolerated dose (MTD).\nThe ranges of doses studied were 1.9, 2.3, 3.0, 7.0, 13.7, 14.0 and 15.2 mg/kg for Compound 1 and 3.5, 4.0, 7.0 and 14.0 mg/kg for […]."}, "GABAA receptor": {"tested_on": "GABAA receptor", "test": "Rat hippocampal brain slice electrophysiology assay", "type": "cell-based", "conditions": "in the presence of EC20 of muscimol (2 μM); CA1 population spike; read-out: EC50, potentiation of the action of agonists at the GABAA receptor", "description": "Rat hippocampal slices were prepared as follows: Male Wistar rats (100-125 g) were anesthetized with isoflurane and decapitated, the brains quickly removed, collected, blocked, and cut using a vibratome (OTS-4000, Electron Microscope Sciences) into 400 micron (μm) transverse sections. Slices were transferred to a warmed (33° C.), submerged tissue-recording chamber perfused at 2.5-3 ml/min with modified artificial cerebrospinal fluid (120 mM sodium chloride, 3.5 mM, potassium chloride, 2.5 mM calcium chloride, 1.3 mM magnesium chloride, 1.25 mM sodium phosphate, 26 mM sodium carbonate, 10 mM glucose, saturated with 95% oxygen, pH 7.4). […]\nElectrophysiology testing was accomplished as follows: A glass rod electrode (1-2 μM tip diameter) was filled with 3M sodium chloride (NaCl) and placed in the CA1 pyramidal cell layer of hippocampal slices. […] Population responses of the CA1 pyramidal cells were recorded with an Axoprobe-1A (Axon Instruments, Molecular Devices, Sunnyvale, Calif.). pCLAMP 8.2 (Axon Instruments) was used for acquiring the data, and Clampfit (Axon Instruments) was used for analysis. […] Peak to peak amplitude of the population response from each stimulus was measured as an indicator of cell excitability. […]\nData were acquired and analyzed using Clampfit and Excel (Microsoft), and reported as mean and individual values."}}, "note": "Like-named read-outs stand apart in the source and are kept apart here."}
{"smiles": "CC[C@@H](C)c1cccc([C@H](C)CC)c1O", "note": "[Compound 1]", "values": [{"measurement": "episodes of vomiting or retching", "setting": "ferrets", "value": "did not produce any episodes of vomiting or retching"}, {"measurement": "IV infusion time producing maximal suppression of BIS", "setting": "pigs", "value": "14.7 ± 3.8", "unit": "min"}, {"measurement": "Clearance", "setting": "[1]; pig, IV infusion", "value": "exceeded estimated hepatic blood flow"}, {"measurement": "metabolic pathway", "setting": "[1]; pigs", "value": "glucuronidation in the 1-position with the 4-position being subject to hydroxylation followed by glucuronide and sulfate conjugation"}, {"measurement": "duration of anesthesia (sleep time)", "setting": "Beagle dogs; 5 mg/kg bolus IV", "value": 24, "unit": "min"}, {"measurement": "duration of anesthesia (sleep time)", "setting": "Beagle dogs; 10 mg/kg bolus IV", "value": 43, "unit": "min"}, {"measurement": "duration of anesthesia (sleep time)", "setting": "Beagle dogs; 15 mg/kg bolus IV", "value": 77, "unit": "min"}, {"measurement": "duration of anesthesia (sleep time)", "setting": "Beagle dogs; 30 mg/kg bolus IV", "value": 105, "unit": "min"}, {"measurement": "deaths", "setting": "male Sprague-Dawley rats; 15.2 mg/kg bolus IV", "value": "Two rats died"}, {"measurement": "HD50 (dose required to cause 50% of the rats to lose righting reflex)", "setting": "male Sprague-Dawley rats; bolus IV", "value": 2.1, "unit": "mg/kg"}, {"measurement": "HD7min (dose required to produce 7 minutes of anesthesia)", "setting": "male Sprague-Dawley rats; bolus IV", "value": 2.3, "unit": "mg/kg"}, {"measurement": "TI (therapeutic index, ratio of MTD to HD7 min)", "setting": "male Sprague-Dawley rats; bolus IV", "value": 6.1}, {"measurement": "EC50", "setting": "GABAA receptor", "value": 2500, "unit": "nM"}]}
